The values below come from patent publication EP3436024B1, “3-BETA-METHOXY-PREG FOR USE IN THE TREATMENT OF TREATMENT RESISTANT DEPRESSION” (Mapreg, priority 2016, dated 2017).

One assay relates to Noradrenergic α2. Nature of the assay: CNS receptor binding assay, α2. As to conditions: MAP4343 10 µM; [^3H] RX 821002; rat cerebral cortex. As for the experimental part: (§1) MAP4343 has been screened for in vitro affinity to 80 different CNS neurotransmitters receptors using various validated binding assays.
(§2) Table 4. In vitro affinity of MAP4343 (10 µM) for CNS neurotransmitter receptors associated with side effects and/or abuse liability. Data are the average of two individual assays for each receptor and are expressed as % inhibition of the control specific binding of the reference compound. Results showing an inhibition higher than 50% are considered to represent significant effects of the test compound.

Another assay has as its system NMDA PCP site. Nature of the assay: CNS receptor binding assay, NMDA PCP site. Conditions: MAP4343 10 µM; [^3H] TCP; rat cerebral cortex. As for the experimental part:
as §1, §2

For a further assay, the target named is Serotoninergic 5-HT2B (Homo sapiens, UniProt P41595). The assay can be described thus: CNS receptor binding assay, 5-HT2B. Conditions: MAP4343 10 µM; [^125I] (±) DOI; Human recombinant (CHO cells); read-out: % Inhibition of control specific binding. As for the experimental part:
as §1, §2

A further assay concerns the target Oppioid δ2 (Homo sapiens, UniProt P41143). Nature of the assay: CNS receptor binding assay, opioid δ2. As to conditions: MAP4343 10 µM; [^3H] DADLE; Human recombinant (CHO cells); read-out: % Inhibition of control specific binding. As for the experimental part:
as §1, §2

Chain of Serotoninergic 5-HT2B (P41595 whole entry): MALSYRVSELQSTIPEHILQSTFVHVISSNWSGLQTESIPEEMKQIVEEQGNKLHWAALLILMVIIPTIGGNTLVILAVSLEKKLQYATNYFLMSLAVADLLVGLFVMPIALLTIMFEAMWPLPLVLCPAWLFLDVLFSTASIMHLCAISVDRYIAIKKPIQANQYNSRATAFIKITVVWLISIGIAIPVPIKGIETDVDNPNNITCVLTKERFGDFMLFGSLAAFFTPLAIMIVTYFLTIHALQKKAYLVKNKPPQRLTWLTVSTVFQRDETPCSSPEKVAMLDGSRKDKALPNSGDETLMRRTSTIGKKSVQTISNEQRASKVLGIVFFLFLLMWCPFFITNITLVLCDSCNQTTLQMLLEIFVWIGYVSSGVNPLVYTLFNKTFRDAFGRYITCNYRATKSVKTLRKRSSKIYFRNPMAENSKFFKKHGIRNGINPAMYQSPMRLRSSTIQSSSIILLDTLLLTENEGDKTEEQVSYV
Chain of Oppioid δ2 (P41143 whole entry): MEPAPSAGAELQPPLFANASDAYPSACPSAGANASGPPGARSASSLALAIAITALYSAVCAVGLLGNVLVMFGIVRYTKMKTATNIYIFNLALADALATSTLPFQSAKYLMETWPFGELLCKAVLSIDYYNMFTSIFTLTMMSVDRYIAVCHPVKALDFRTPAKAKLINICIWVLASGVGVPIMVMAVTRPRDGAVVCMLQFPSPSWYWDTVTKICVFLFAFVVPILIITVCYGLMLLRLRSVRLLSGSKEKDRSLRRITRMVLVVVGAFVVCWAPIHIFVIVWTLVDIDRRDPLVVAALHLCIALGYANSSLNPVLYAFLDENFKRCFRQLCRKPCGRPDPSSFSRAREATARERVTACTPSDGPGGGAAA

Turning to `CO[C@H]1CC[C@@]2(C)C(=CC[C@H]3[C@@H]4CC[C@H](C(C)=O)[C@@]4(C)CC[C@@H]32)C1` (stereo in doubt) [MAP4343, 3β-methoxy-pregna-5-ene-20-one], the figures for the “% Inhibition of control specific binding” value with Noradrenergic α2 and in the assay on NMDA PCP site were 7% and -10%, respectively. Further, the inhibition – broadly, the drop in the measured response relative to a control, in per cent – at 10 µM at Serotoninergic 5-HT2B was -4%; on Oppioid δ2, -3%.
